The source of these data is ChEMBL document CHEMBL1151907, “Cyclic glycopeptidomimetics through a versatile sugar-based scaffold” (Bioorg Med Chem Lett, 2009).

Active and inactive are the calls of the source. The calls are words filed in the database; no cut-off is given here.

Test [1] addresses T1, Substance-K receptor (Homo sapiens) (UniProt P21452).
T1 sequence (whole entry): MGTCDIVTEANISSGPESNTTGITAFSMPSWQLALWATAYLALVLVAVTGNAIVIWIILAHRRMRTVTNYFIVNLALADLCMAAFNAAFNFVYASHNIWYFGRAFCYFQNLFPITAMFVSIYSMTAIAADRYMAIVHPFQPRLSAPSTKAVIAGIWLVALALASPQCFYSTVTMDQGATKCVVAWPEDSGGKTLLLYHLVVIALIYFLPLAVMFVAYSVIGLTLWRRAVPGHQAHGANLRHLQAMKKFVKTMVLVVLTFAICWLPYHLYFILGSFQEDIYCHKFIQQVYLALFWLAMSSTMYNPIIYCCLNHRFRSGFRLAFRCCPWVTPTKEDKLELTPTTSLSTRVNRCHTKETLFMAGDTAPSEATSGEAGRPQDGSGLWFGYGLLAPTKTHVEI
Description: Displacement of [125I]neurokinin A from human tachykinin NK2 receptor expressed in CHO cell at 10 uM. In kind it is cell-based. Background: Displacement assays read how much labelled ligand stays bound in the presence of the test substance.

The target in test [2] is Integrin alpha-4/beta-1 (Homo sapiens) (UniProt P05556+P13612). Kind of test: Inhibition of integrin alpha-4-beta-1-mediated U937 and Jurkat cell adhesion to VCAM-1 coated surface up to 100 uM by BCECF fluorescence measurement. It is filed as cell-based.

Broadly, the inhibition is the percentage by which the read-out fell short of the control. On to `COC(=O)C1=C2C[C@@H](C(=O)OCc3ccccc3)NC(=O)[C@H](C)NC(=O)[C@H](Cc3ccccc3)NC(=O)[C@H](Cc3ccccc3)NC(=O)[C@H](Cc3ccccc3)NC(=O)[C@H](C)NC(=O)[C@H]3O[C@H](O2)[C@H](S1)[C@@H](O)[C@@H]3O`, for which, in test [1], the inhibition stood at 25%.
With `CC[C@H](C)[C@@H]1NC(=O)[C@H](CCC(=O)O)NC(=O)[C@H]2O[C@@H]3OC(=C(C(=O)OC)S[C@@H]3[C@@H](O)[C@@H]2O)C[C@@H](C(=O)O)NC(=O)[C@H](C(C)C)NC(=O)[C@H](CC(=O)O)NC(=O)[C@H](CC(C)C)NC1=O`, the inhibition result in test [2] was “inactive”.
